# Measured values: patent US20230301991A1, “COMPOUNDS FOR THE TREATMENT OF VIRAL INFECTIONS” (priority 2020, published 2023)
# Experiments:
# [1] = tested on: SARS-CoV-2; format: cell-based
# [2] = tested on: MERS; format: cell-based
# [3] = tested on: SARS-CoV-1; format: cell-based
# [4] = tested on: Calu-3
smiles,measurement,setting,value
"CNCc1ccc(-c2cc(-c3nc(-c4ccc(S(=O)(=O)C(C)C)cc4)cnc3N)on2)cc1 [Compound 1, 3-[3-(4-Methylaminomethyl-phenyl)-isoxazol-5-yl]-5-[4-(propane-2-sulfonyl)-phenyl]-pyrazin-2-ylamine]",inhibition in cells infected by SARS-CoV-2 compared with remdesivir,[1],comparable with that of the antiviral reference substance remdesivir
same,inhibition of virus replication,[1],dose dependent inhibition
same,inhibition of virus replication,[2],dose dependent inhibition
same,inhibition of virus replication,[3],dose dependent inhibition
same,cell viability,[4],remains nearly unaffected
